GI50 and TGI data for 13 compounds are collected here from PubChem BioAssay (NCI).

Holding throughout (assay): DTP human tumour cell line panel, 48 h
Test [1] has as its system DU-145 prostate.
In test [2] the test system is SN12C renal.
In test [3] the test system is HCC-2998 colon.
Test [4] relates to UACC-62 melanoma.
Test [5] concerns NCI-H460 lung.
For test [6], the system named is HT29 colon.
In test [7] the test system is SK-OV-3 ovarian.
Test [8] deals with SF-268 CNS.
Test [9] has as its system SNB-75 CNS.
Test [10] relates to UO-31 renal.

Values joined by “and” are separate entries in the source; they are usually repeats but may differ in a detail not shown here. Identical values can stand only once.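 Exposure lasted 48 hours, with cells grown in 96-well plates and compounds tested at five concentrations. The concentration for 50% growth inhibition is given as GI50. TGI denotes the concentration required for complete inhibition of growth.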

On to `COc1ccc2c(c1)C(=O)c1c-2n(CCCN(C)C)c(=O)c2cc([N+](=O)[O-])ccc12`, for which the GI50 (as a rule, the concentration giving 50% growth inhibition) in [1] was less than 0.01 µM; in test [2], less than 0.01 µM; in test [3] it was 0.0131 µM; in [4], less than 0.01 µM; in test [5] it was less than 0.01 µM; in test [6] it was less than 0.01 µM. The GI50 in test [7], in test [8], in [9] and in test [10] was less than 0.01 µM throughout. For the same compound, the TGI (in general, the concentration giving total growth inhibition) in [1] was 0.0319 µM; in test [2], 10.7 µM; in [3], 0.255 µM; in test [4], less than 0.01 µM; in test [5] it was 0.234 µM; in [6], 0.61 µM. For the same compound, the TGI is 0.666 µM in test [7], 2.29 µM in [8], 2.74 µM in test [9] and 0.0294 µM in [10].

Take `COC(=O)c1cc2cc(/C=C3/SC(=S)N(N(C(C)=O)C(C)=O)C3=O)oc2n1Cc1ccccc1`: the GI50 in test [1] is 20.7 µM; in test [2], 20.7 µM; in test [3], 17.3 µM; in [4], 14.4 µM; in test [5], 19.3 µM; in test [6] it was 37.4 µM. The GI50 in test [7] was 37.4 µM; in [8] it was 48.2 µM; in test [9] it was 37.1 µM; in [10], 29.7 µM. For the same compound, the concentration for total growth inhibition (TGI) is 73.4 µM in test [1]; 56 µM in test [2]; 40.5 µM in test [3]; 33 µM in test [4]; more than 100 µM in test [5]; more than 100 µM in test [6]. Further, the TGI in test [7] was 89.9 µM; in test [8], more than 100 µM; in test [9] it was more than 100 µM; in test [10] it was more than 100 µM.

Regarding `COc1ccc(-c2c(-c3ccc(C#N)c(F)c3)nc(N3CCC(N)CC3)n(C)c2=O)cc1F`, the GI50 in [1] is 25.5 µM; in test [2] it was 19.3 µM; in test [3] it was 13 µM; in test [4], 16.1 µM; in [5] it was 19.1 µM; in test [6] it was 10.4 µM. Also, the GI50 in [7] is 15.8 µM; in test [8] it was 20.4 µM; in [9], 10.9 µM; in test [10], 9.31 µM. Further, the TGI was more than 100 µM in test [1]; 79.3 µM in test [2]; 26.7 µM in test [3]; 32.9 µM in [4]; 37.1 µM in [5]; 30.2 µM in [6]. Besides, the TGI in [7] turned out to be 45.8 µM; in test [8] it was 87 µM; in [9], 27.7 µM; in [10] it was 22.9 µM.

On to `Oc1[nH]c2ccccc2c1C=Nc1ccc(-n2cncn2)cc1`, for which the GI50 is more than 22.5 µM in test [1]; 14.6 µM in test [2]; more than 25 µM in test [3]; 14.6 µM in [4]; more than 23 µM in [5]; more than 23.1 µM in test [6]. Besides, the GI50 in [7] was more than 15.7 µM; in test [8] it was more than 24.1 µM; in test [9], more than 25 µM; in [10] it was more than 17.7 µM. Also, the TGI in test [1], in [2], in test [3], in [4], in test [5] and in test [6] was more than 25 µM throughout. Moreover, the TGI in test [7], in test [8], in test [9] and in test [10] was more than 25 µM in each case.

With `COc1ccc2c(c1)-c1c(c3cc(OC)ccc3n(CCN(C)C)c1=O)C2=O`, the GI50 in test [1] is 0.565 µM; in [2], 0.32 µM; in test [3], 1.18 µM; in [4], 3.11 µM; in [5], 0.341 µM; in [6], 0.24 µM. For the same compound, the GI50 in test [7] was 1.73 µM; in test [8], 0.362 µM; in test [9] it was 1.36 µM; in test [10], 0.127 µM. The TGI worked out at 3.54 µM in test [1]; 6.16 µM in test [2]; 9.24 µM in test [3]; 9.73 µM in test [4]; 2.09 µM in test [5]; 1.2 µM in test [6]. For the same compound, the concentration for total growth inhibition (TGI) in [7] was 8.77 µM; in test [8], 6.21 µM; in test [9] it was 7.49 µM; in test [10], 1.23 µM.

On to `O=C1NC(=NCCc2ccc(Br)cc2)S/C1=C\c1ccc2ncccc2c1`, for which the GI50 in [1], in test [2], in test [3], in test [4], in test [5] and in [6] was more than 25 µM throughout. Also, the GI50 in test [7] was more than 25 µM; in test [8] it was 15.9 µM; in test [9], more than 25 µM; in test [10], more than 25 µM. Moreover, the TGI in test [1], in test [2], in [3], in [4], in test [5] and in test [6] was more than 25 µM in each case. Further, the TGI in [7], in test [8], in test [9] and in test [10] was more than 25 µM in each case.

On to `CCC(c1ccccc1)c1cc(C(C)(C)C)cc(C(C)(C)C)c1O` (stereo not given), for which the TGI in [1] turned out to be 33.2 µM; in [2], 31.3 µM; in test [3], 29.2 µM; in test [4] it was 32.2 µM; in test [5] it was 31.3 µM; in [6], 28 µM. Moreover, the TGI in test [7] was found to be 28.1 µM; in test [8], 28.9 µM; in [9], 27.2 µM; in test [10], 32.3 µM.

For the compound `CCC(=O)Nc1nnc(Cc2ccc(OC)c(OC)c2)s1`, the GI50 in [1], in test [2], in [3], in test [4], in test [5] and in [6] was more than 100 µM each time. Further, the GI50 in test [7] is more than 100 µM; in test [8], more than 100 µM; in test [9] it was 44.2 µM; in [10], more than 100 µM. Moreover, the TGI in [1], in test [2], in [3], in [4], in test [5] and in test [6] was more than 100 µM each time. For the same compound, the TGI in test [7], in [8], in [9] and in test [10] was more than 100 µM each time.

As to `COc1ccc2c(c1)/C(=N/OC(C)=O)c1c-2c(OC)nc2ccccc12`, the GI50 is more than 100 µM in test [1]; 59.9 µM in test [2]; more than 100 µM in test [3]; more than 100 µM in test [4]; more than 100 µM in test [5]; more than 100 µM in test [6]. Besides, the GI50 was 48.1 µM in test [7], more than 100 µM in [8], 18 µM in test [9] and more than 100 µM in test [10]. Further, the TGI in test [1], in test [2], in test [3], in test [4], in [5] and in test [6] was more than 100 µM throughout. For the same compound, the TGI in test [7], in [8], in [9] and in test [10] was more than 100 µM in each case.

Regarding `C=CCSC(C)=O`, the TGI in test [1], in test [2], in [3], in [4], in test [5] and in test [6] was more than 100 µM each time. Besides, the TGI in [7], in test [8], in test [9] and in [10] was more than 100 µM in each case.

Regarding `CNC(=O)c1cc(Oc2ccc(NC(=O)Nc3cc(C(C)(C)C)nn3-c3ccc4ncccc4c3)c(F)c2)ccn1`, the GI50 in test [1] was 2.1 µM and 1.8 µM; in [2], 0.646 µM and 0.484 µM; in test [3], 3.21 µM and 3.38 µM; in test [4], 0.0743 µM and 0.0624 µM; in [5], 2.06 µM and 2.04 µM; in test [6], 0.52 µM and 0.505 µM. Besides, the GI50 in test [7] is 1.59 µM and 2.34 µM; in [8] it was 1.41 µM and 1.52 µM; in [9], 1.09 µM and 1.01 µM; in test [10], 1.62 µM and 1.78 µM. For the same compound, the TGI in test [1] is 6.23 µM and 5.62 µM; in [2] it was 5.74 µM and 4.68 µM; in [3], 7.82 µM and 7.78 µM; in test [4], 1.62 µM and 1.18 µM; in test [5] it was 8.11 µM and 6.93 µM; in [6] it was 3.65 µM and 5.07 µM. For the same compound, the TGI in [7] was 6.59 µM and 7.8 µM; in test [8], 5.16 µM and 4.49 µM; in [9] it was 2.7 µM and 3.01 µM; in test [10] it was 7.7 µM and 6.39 µM.

Turning to `O=C1/C(=C/c2ccc([N+](=O)[O-])o2)Oc2ccc(Cl)cc21`, the GI50 in test [1] was 2.25 µM; in test [2] it was 2.2 µM; in test [3], 2.18 µM; in test [4], 1.58 µM; in [5], 3 µM; in test [6] it was 1.87 µM. Besides, the GI50 in test [7] was 13 µM; in [8], 1.84 µM; in [9], 1.6 µM; in [10], 1.35 µM. Further, the concentration for total growth inhibition (TGI) was 4.88 µM in [1]; 5.67 µM in test [2]; 4.56 µM in [3]; 3.41 µM in test [4]; 15.4 µM in test [5]; 3.98 µM in test [6]. The TGI in test [7] turned out to be 47.2 µM; in test [8], 3.77 µM; in test [9], 5.44 µM; in test [10], 3.87 µM.

Take `COc1cc(C2NC(=O)C(C#N)=C(Nc3cccc(C)c3)S2)ccc1O` (stereo not given): the GI50 in test [1], in [2], in test [3], in test [4], in test [5] and in test [6] was more than 100 µM in each case. In addition, the GI50 in [7], in [8], in test [9] and in test [10] was more than 100 µM throughout. In addition, the TGI in test [1], in [2], in test [3], in test [4], in test [5] and in test [6] was more than 100 µM throughout. The TGI in test [7], in [8], in [9] and in test [10] was more than 100 µM throughout.
